Literature values as cited in US11857524B2, “Stable oral suspensions of baclofen” (ANI Pharmaceuticals, Inc., priority 2021, dated 2024).
Where two headings read alike, the source gives them in different places.

Solubility (in chloroform): insoluble
Solubility (in methanol): very slightly soluble
Solubility (in water): slightly soluble
SMILES: NCC(CC(=O)O)c1ccc(Cl)cc1 (stereo not drawn) [Baclofen, 4-amino-3-(4-chlorophenyl)-butanoic acid]
